Source: ChEMBL document CHEMBL2010673, “Structure-activity relationship of pyrrole based S-nitrosoglutathione reductase inhibitors: carboxamide modification” (Bioorg Med Chem Lett, 2012)

Test system: not listed separately
Assay: Inhibition of Smt-tagged S-nitrosoglutathione reductase expressed in Escherichia coli using […] as substrate for 3 mins by spectrophotometric analysis
Conditions: not given; call rule not given here

| IC50 | Compound |
| --- | --- |
| Not Active | CCOC(=O)CCc1ccc(-c2ccc(OC)cc2)n1-c1ccc(CC(N)=O)cc1 |

Same assay, conditions: read-out: IC50

| IC50 [nM] | Compound |
| --- | --- |
| 710 | CCOC(=O)CCc1ccc(-c2ccc(OC)cc2)n1-c1ccc(NS(N)(=O)=O)cc1C |
| 180 | Cc1cc(NS(C)(=O)=O)ccc1-n1c(CCC(=O)O)ccc1-c1ccc(-n2ccnc2C)cc1 |
| 730 | CCOC(=O)CCc1ccc(-c2ccc(OC)cc2)n1-c1ccc(C(=O)NCCOC)cc1C |
| 1310 | CCOC(=O)CCc1ccc(-c2ccc(OC)cc2)n1-c1ccc(C(=O)N(C)C)cc1C |
| 180 | Cc1cc(O)ccc1-n1c(CCC(=O)O)ccc1-c1ccc(-n2ccnc2)cc1 |
| 32 | O=C(O)CCc1ccc(-c2ccc(-n3ccnc3)s2)n1-c1ccc(O)cc1 |
| 170 | CCOC(=O)CCc1ccc(-c2ccc(OC)cc2)n1-c1ccc(C(=O)Nc2ccncc2)cc1C |
| 88 | CCC(=O)Nc1ccc(-n2c(CCC(=O)O)ccc2-c2ccc(-n3ccnc3)cc2)c(C)c1 |
| 76 | Cc1cc(NS(C)(=O)=O)ccc1-n1c(CCC(=O)O)ccc1-c1cc(-n2ccnc2C)cs1 |
| 22 | Cc1cc(S(N)(=O)=O)ccc1-n1c(CCC(=O)O)ccc1-c1ccc(-n2ccnc2C)s1 |
| 3740 | CCOC(=O)CCc1ccc(-c2ccc(OC)cc2)n1-c1ccc(C(=O)Nc2cncnc2)cc1C |
| 4560 | CCOC(=O)CCc1ccc(-c2ccc(OC)cc2)n1-c1ccc(C(=O)NC)cc1 |
| 61 | CCOC(=O)CCc1ccc(-c2ccc(Br)cc2)n1-c1ccc(C(=O)Nc2ccncc2)cc1C |
| 39 | O=C(O)CCc1ccc(-c2ccc(-n3ccnc3)cc2)n1-c1ccc(O)cc1 |
| 460 | CCOC(=O)CCc1ccc(-c2ccc(OC)cc2)n1-c1ccc(C(N)=O)cc1 |
| 110 | Cc1cc(C(=O)O)ccc1-n1c(CCC(=O)O)ccc1-c1ccc(-n2ccnc2)cc1 |
| 96 | COCC(=O)Nc1ccc(-n2c(CCC(=O)O)ccc2-c2ccc(-n3ccnc3)cc2)c(C)c1 |
| 1790 | Cc1nccn1-c1ccc(-c2ccc(CCC(=O)O)n2-c2ccc(NS(C)(=O)=O)cc2)cc1 |
| 1800 | CCOC(=O)CCc1ccc(-c2ccc(OC)cc2)n1-c1ccc(OC)cc1C |
| 440 | CCOC(=O)CCc1ccc(-c2ccc(OC)cc2)n1-c1ccc(C(=O)Nc2cccnc2)cc1C |
| 45 | Cc1nccn1-c1cc(-c2ccc(CCC(=O)O)n2-c2ccc(O)cc2)cs1 |
| 3250 | CCOC(=O)CCc1ccc(-c2ccc(OC)cc2)n1-c1ccc(Br)cc1 |

| IC50 [nM] | Compound |
| --- | --- |
| 23 | Cc1nccn1-c1ccc(-c2ccc(CCC(=O)O)n2-c2ccc(S(N)(=O)=O)cc2)s1 |
| 240 | CCOC(=O)CCc1ccc(-c2ccc(OC)cc2)n1-c1ccc(O)cc1 |
| 2410 | CCOC(=O)CCc1ccc(-c2ccc(OC)cc2)n1-c1ccc(C(=O)NC)cc1C |
| 3890 | CC(=O)Nc1ccc(-n2c(CCC(=O)O)ccc2-c2ccc(-n3ccnc3C)cc2)cc1 |
| 960 | CCOC(=O)CCc1ccc(-c2ccc(OC)cc2)n1-c1ccc(C(C)=O)cc1 |
| 56 | CC(=O)Nc1ccc(-n2c(CCC(=O)O)ccc2-c2ccc(-n3ccnc3)cc2)c(C)c1 |
| 330 | CCOC(=O)CCc1ccc(-c2ccc(OC)cc2)n1-c1ccc(S(N)(=O)=O)cc1C |
| 1020 | CCOC(=O)CCc1ccc(-c2ccc(OC)cc2)n1-c1ccc(OC)cc1 |
| 36 | Cc1nccn1-c1ccc(-c2ccc(CCC(=O)O)n2-c2ccc(O)cc2)s1 |
| 54 | Cc1nccn1-c1ccc(-c2ccc(CCC(=O)O)n2-c2ccc(O)cc2)cc1 |
| 1410 | Cc1cc(N)ccc1-n1c(CCC(=O)O)ccc1-c1ccc(-n2ccnc2)cc1 |
| 1590 | Cc1cc(CN)ccc1-n1c(CCC(=O)O)ccc1-c1ccc(-n2ccnc2)cc1 |
| 1550 | CCOC(=O)CCc1ccc(-c2ccc(OC)cc2)n1-c1ccc(O)cc1C |
| 8840 | CCOC(=O)CCc1ccc(-c2ccc(OC)cc2)n1-c1ccc(C)cc1C |
| 96 | Cc1nccn1-c1csc(-c2ccc(CCC(=O)O)n2-c2ccc(O)cc2)c1 |
| 360 | Cc1nccn1-c1csc(-c2ccc(CCC(=O)O)n2-c2ccc(NS(C)(=O)=O)cc2)c1 |
| 660 | CCOC(=O)CCc1ccc(-c2ccc(OC)cc2)n1-c1ccc(C(=O)NCCO)cc1C |
| 3270 | CCOC(=O)CCc1ccc(-c2ccc(OC)cc2)n1-c1ccc(NC(C)=O)cc1 |
| 450 | CC(=O)Nc1ccc(-n2c(CCC(=O)O)ccc2-c2ccc(-n3ccnc3C)cc2)c(C)c1 |
| 140 | CC(=O)Nc1ccc(-n2c(CCC(=O)O)ccc2-c2cc(-n3ccnc3C)cs2)cc1 |
| 640 | CCOC(=O)CCc1ccc(-c2ccc(OC)cc2)n1-c1ccc(C(=O)Nc2ccnnc2)cc1C |
| 4800 | CCOC(=O)CCc1ccc(-c2ccc(OC)cc2)n1-c1ccc(NC(N)=O)cc1 |

Test system: not listed separately
Assay: Oral bioavailability in BALB/c mouse at 10 mg/kg by LC-MS/MS analysis
Format: ADME, organism-based
Conditions: in vivo

| bioavailability [%] | Compound |
| --- | --- |
| 6.8 | O=C(O)CCc1ccc(-c2ccc(-n3ccnc3)cc2)n1-c1ccc(O)cc1 |
| 3.9 | Cc1nccn1-c1ccc(-c2ccc(CCC(=O)O)n2-c2ccc(O)cc2)s1 |

Test system: A549
Assay: Cytotoxicity against human A549 cells after 48 hrs by MTS assay
Format: cell-based
Conditions: A549, 48 h

| Compound | IC50 [nM] |
| --- | --- |
| Cc1cc(NS(C)(=O)=O)ccc1-n1c(CCC(=O)O)ccc1-c1cc(-n2ccnc2C)cs1 | > 150000 |
| Cc1cc(S(N)(=O)=O)ccc1-n1c(CCC(=O)O)ccc1-c1ccc(-n2ccnc2C)s1 | > 150000 |
| Cc1nccn1-c1ccc(-c2ccc(CCC(=O)O)n2-c2ccc(S(N)(=O)=O)cc2)s1 | > 150000 |
| Cc1nccn1-c1ccc(-c2ccc(CCC(=O)O)n2-c2ccc(O)cc2)s1 | > 150000 |

Test system: not listed separately
Assay: Plasma clearance in BALB/c mouse at 2 mg/kg, iv by LC-MS/MS analysis
Format: ADME, organism-based
Set-up: dose 2 mg/kg, route intravenous
Conditions: not given

| clearance [mL/min/kg] | Compound |
| --- | --- |
| 37.1 | O=C(O)CCc1ccc(-c2ccc(-n3ccnc3)cc2)n1-c1ccc(O)cc1 |
| 23.9 | Cc1nccn1-c1ccc(-c2ccc(CCC(=O)O)n2-c2ccc(O)cc2)s1 |
